# Key:
# [1] = target: T1, P-4501A2 (Homo sapiens, UniProt P05177); experiment: Inhibition of P-450 mediated caffeine metabolism to paraxanthine in human liver microsomes; settings: for inhibition of P-450-mediated caffeine metabolism (in words): human liver microsomes, summary of Table 1; for activity at 0 h, 100 µM / activity at 5 min, 100 µM / activity at 20 min, 100 µM: human
# T1 sequence (P05177 1-516): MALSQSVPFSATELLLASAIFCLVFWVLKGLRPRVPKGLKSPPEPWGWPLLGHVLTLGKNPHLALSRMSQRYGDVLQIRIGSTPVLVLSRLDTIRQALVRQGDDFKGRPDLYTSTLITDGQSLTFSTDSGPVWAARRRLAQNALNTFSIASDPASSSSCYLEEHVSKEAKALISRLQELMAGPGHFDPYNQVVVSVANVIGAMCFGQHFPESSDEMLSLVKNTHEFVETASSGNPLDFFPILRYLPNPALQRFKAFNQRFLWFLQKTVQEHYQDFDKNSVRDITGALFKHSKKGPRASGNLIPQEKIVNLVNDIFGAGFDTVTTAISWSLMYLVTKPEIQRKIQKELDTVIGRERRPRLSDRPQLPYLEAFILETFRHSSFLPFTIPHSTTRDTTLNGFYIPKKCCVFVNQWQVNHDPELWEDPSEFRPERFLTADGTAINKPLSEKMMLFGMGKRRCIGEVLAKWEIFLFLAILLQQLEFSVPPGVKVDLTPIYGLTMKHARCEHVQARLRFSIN
# Protocol: The model system directly measures inhibition of P-4501A2-mediated metabolism in the physiological environment of human liver microsomes. Measurement of drug metabolism in a microsome system is directly predictive of liver metabolism in vivo. Thus, microsome data can be used to estimate the in vivo circulating half-life of compounds that are primarily metabolized in the liver.
# Microsomes were prepared by standard techniques from four human livers. […] Three sets of enantiomers, CT2408 R&S, CT2410 R&S, and CT2412 R&S, were evaluated for inhibition of caffeine metabolism to paraxanthine by P-450.
# Briefly, the inventive compounds were preincubated in microsomes with NADPH at concentrations of 100 μM for 0, 5, and 20 minutes. Samples containing only buffer, LSF, or furafylline were used as controls.
# At the end of the preincubation period, the samples were diluted in a solution of NADPH and caffeine. The samples then were incubated for twenty minutes. Hydroxyethyl theophylline was added as an internal standard, and the samples were analyzed for paraxanthine via HPLC. Decreased paraxanthine formation is indicative of inhibition of P-450-mediated caffeine metabolism.
# Incubation conditions and analysis of paraxanthine
# To 200 μL microsomal suspension (HL-124; 20 mg/mL protein, P-450 specific activity 0.24 nmol/mg protein) and 100 μL 8.0 mM NADPH (Sigma, tetrasodium salt) in 100 mM phosphate buffer pH 7.4 preincubated for 2 minutes at 37° were added 100 μL of test compound solution (400 μM) in phosphate buffer ([…], pH 7.4). The solution then was incubated at 37° with agitation for 0, 5, and 20 minutes at which times 100 μL of the solution was transferred to another tube containing 200 μL 12.5 mM caffeine and 200 μL 5.0 mM NADPH which had been warmed at 37° for 2 minutes. The suspensions then were incubated for 20 minutes, 200 μL acetonitrile added, and the tubes placed on ice.
# After all incubations were finished, 50 μL β-hydroxyethyl theophylline (50 μg/mL, HET) was added as an internal standard. Paraxanthine standards were prepared in 0.5 mL phosphate buffer containing 2.0 mg boiled microsomal protein ranging in concentration from 0.433 to 13.9 nmol/sample.
# The suspensions then were extracted for 5 minutes with 7.0 mL methylene chloride (Fisher Optima grade), centrifuged at 3,000 g and the aqueous layer aspirated to waste. An aliquot of the organic (5.5 mL) was then transferred to another tube, evaporated to dryness under nitrogen at 30°, and reconstituted in 20% methanol/water.
# Thirty microliters of reconstituted sample were then applied to an Hewlett Packard 1050 HPLC system equipped with a Rainin Microsorb™ 4.6×100 mm column with 3 μm C-18 packing. Mobile phase was maintained at 1.0 mL/min and changed from 2:13:85 to 2:20:78 acetonitrile:methanol:25 mM phosphate buffer, pH 5 over 10 minutes, the column was then washed by increasing the acetonitrile to 20% prior to re-equilibration for the next injection. Column eluent was monitored at 285 nm and paraxanthine, HET, and caffeine respectively eluted at 5.3, 6.6, and 9.8 minutes.
# [2] = test system: caffeine metabolism; settings: cited from earlier work
# [3] = test system: P-450IA2; settings: liver; Sesardic et al.; cited from earlier work
# [4] = test system: LSF metabolism; experiment: Co-administration of furafylline with LSF: circulating half-life of LSF; format: in vivo; settings: co-administered with LSF
# [5] = test system: P-450IA2; settings: Lillibridge et al.; cited from earlier work
# [6] = human, in vivo; cited from earlier work
Structure (SMILES),"activity at 0 h, 100 µM ([1]; liver microsomes)","activity at 5 min, 100 µM ([1]; liver microsomes)","activity at 20 min, 100 µM ([1]; liver microsomes)",other results
"Cc1nc2c([nH]1)c(=O)n(CCCCC(C)O)c(=O)n2C (stereo not drawn) [CT2408 R&S, 1-(5-Hydroxyhexyl)-3,8-dimethylxanthine]",,,,inhibition of P-450-mediated caffeine metabolism (in words) [1]: showed similar inhibition
"Cc1nc2c(c(=O)n(CCCCC(C)O)c(=O)n2C)n1C (stereo not drawn) [CT2410, 1-(5-Hydroxyhexyl)-3,7,8-trimethylxanthine]",,,,"inhibition of P-450-mediated caffeine metabolism (in words) [1]: Neither CT2410 (1-(5-Hydroxyhexyl)-3,7,8-trimethylxanthine) nor LSF ((R)-1-(5-Hydroxyhexyl)-3,7-dimethylxanthine) had any inhibitory effect"
"Cc1nc2c([nH]1)c(=O)n(CCCCC(C)O)c(=O)n2Cc1ccco1 (stereo not drawn) [CT2412 R&S, 3-(2-furylmethyl)-1-(5-hydroxyhexyl)-8-methylxanthine]",,,,inhibition of P-450-mediated caffeine metabolism (in words) [1]: showed similar inhibition
"Cc1nc2c([nH]1)c(=O)n(C)c(=O)n2Cc1ccco1 [FRF, 1,8-dimethyl-3-(2'furfuryl)-methylxanthine]",,,,"circulating half-life of caffeine ([2]; by inhibiting N3 demethylation): increases the circulating half-life of caffeine; serum caffeine levels in patients treated ([2]; clinical trials, Tarrus et al.): elevated serum caffeine levels; activity at 0 h, 100 µM ([1]; microsomes): 36.8%; activity at 5 min, 100 µM ([1]; microsomes): 13.9%; activity at 20 min, 100 µM ([1]; microsomes): 10.1%; inhibition of P-450IA2 / N3 demethylation of caffeine [3]: inhibiting the P-450 isozyme, P-450IA2, which catalyzes N3 demethylation of caffeine in the liver; circulating half-life of LSF on co-administration [4]: increase the circulating half-life of the methylxanthine compound LSF"
CC(=O)CCCCn1c(=O)c2c(ncn2C)n(C)c1=O [PTX],,,,"site of metabolism [5]: primary metabolites of LSF and PTX result from modification of the N1 substituent, not the N3 substituent"
CC(C(=O)O)c1ccc2oc(-c3ccc(Cl)cc3)nc2c1 (stereo not drawn) [benoxaprofen],,,,toxic / side effects [6]: lethal side effects
"Cn1c(=O)c2c(ncn2C)n(C)c1=O [caffeine, 1,3,7-trimethylxanthine]",,,,site of metabolism [5]: P-450IA2 mediates demethylation of caffeine at the N3 position of the xanthine ring
"CC[C@H](CO)NCCN[C@H](CC)CO [ethambutol R,R-enantiomer]",,,,toxic / side effects [6]: can cause blindness
O=C1CC[C@@H](N2C(=O)c3ccccc3C2=O)C(=O)N1 [thalidomide R-isomer],,,,sedative activity [6]: desired sedative activity resided in the R-isomer
O=C1CC[C@H](N2C(=O)c3ccccc3C2=O)C(=O)N1 [thalidomide S-isomer],,,,"toxic / side effects [6]: teratogen, causing the birth defects in babies born to mothers using this drug"

# The next lines start with results.
"activity at 0 h, 100 µM ([1]; liver microsomes)","activity at 5 min, 100 µM ([1]; liver microsomes)","activity at 20 min, 100 µM ([1]; liver microsomes)",Structure (SMILES),other results
95.2%,73.9%,46.6%,"Cc1nc2c([nH]1)c(=O)n(CCCC[C@@H](C)O)c(=O)n2C [CT2408R, (R)-1-(5-Hydroxyhexyl)-3,8-dimethylxanthine]",
97.2%,71%,41.8%,"Cc1nc2c([nH]1)c(=O)n(CCCC[C@H](C)O)c(=O)n2C [CT2408S, (S)-1-(5-Hydroxyhexyl)-3,8-dimethylxanthine]",
92.8%,87.8%,88.3%,"Cc1nc2c(c(=O)n(CCCC[C@@H](C)O)c(=O)n2C)n1C [CT2410R, 1-(5-Hydroxyhexyl)-3,7,8-trimethylxanthine]",
101%,91%,83.5%,"Cc1nc2c(c(=O)n(CCCC[C@H](C)O)c(=O)n2C)n1C [CT2410S, 1-(5-Hydroxyhexyl)-3,7,8-trimethylxanthine]",
101%,82.8%,56.3%,"Cc1nc2c([nH]1)c(=O)n(CCCC[C@@H](C)O)c(=O)n2Cc1ccco1 [CT2412R, (R)-3-(2-Furylmethyl)-1-(5-hydroxyhexyl)-8-methylxanthine]",
98.7%,75.6%,51.7%,"Cc1nc2c([nH]1)c(=O)n(CCCC[C@H](C)O)c(=O)n2Cc1ccco1 [CT2412S, (S)-3-(2-Furylmethyl)-1-(5-hydroxyhexyl)-8-methylxanthine]",
101%,91%,85.8%,"C[C@@H](O)CCCCn1c(=O)c2c(ncn2C)n(C)c1=O [LSF, (R)-1-(5-Hydroxyhexyl)-3,7-dimethylxanthine, reference compound]","inhibition of P-450-mediated caffeine metabolism (in words) [1]: Neither CT2410 (1-(5-Hydroxyhexyl)-3,7,8-trimethylxanthine) nor LSF ((R)-1-(5-Hydroxyhexyl)-3,7-dimethylxanthine) had any inhibitory effect; site of metabolism [5]: primary metabolites of LSF and PTX result from modification of the N1 substituent, not the N3 substituent"

# Reference: patent US6075029A, “Xanthine modulators of metabolism of cellular P-450” (Cell Therapeutics, Inc., priority 1998, dated 2000)
